Measured values: ChEMBL document CHEMBL4483862, “Open-source discovery of chemical leads for next-generation chemoprotective antimalarials” (2018)

Tested on: Plasmodium berghei
Assay: Luciferase/luciferin-expressing antifolate-resistant parasites were used to infect a culture of HepG2 cells that were pre-incubated with compounds. Infected hepatocytes emit light due to the luciferase reaction. Assay results are presented as the percent inhibition of light emission compared to control. […]
Type: functional
Conditions: sporozoite; for IC90: read-out: LUCIFERASE INFECTION ASSAY - IC90
[1] = read-out: LUCIFERASE INFECTION ASSAY - IC50

SMILES: CC(C)Cn1c(N)c(C(=O)COC(=O)c2c3c(nc4ccccc24)CCCCC3)c(=O)n(C)c1=O
- IC50 (HEPG2TOX_HILL_SLOPE 9.18, HEPG2TOX_R_SQUARED 0.068, PBLUC_HILL_SLOPE 16.7, PBLUC_R_SQUARED 0.609, read-out: LUCIFERASE INFECTION ASSAY - IC50): 1.11 µM
- IC90: 1.27 µM

SMILES: Cc1ccc(-c2csc(NC(=O)CCn3ccnc3)n2)c(C)c1
- IC50 [1]: > 10 µM
- IC90: > 10 µM

SMILES: O=C(Nc1cccc(F)c1)Nc1ccc2nc(-c3ccoc3)nn2c1
- IC50 (PBLUC_HILL_SLOPE 11.8, PBLUC_R_SQUARED 0.647, read-out: LUCIFERASE INFECTION ASSAY - IC50): 8.63 µM
- IC90: > 10 µM

SMILES: CC(Sc1nc2ccsc2c(=O)n1C)c1ccc(F)cc1 (configuration not stated)
- IC50 (PBLUC_HILL_SLOPE 11.9, PBLUC_R_SQUARED 0.0437, read-out: LUCIFERASE INFECTION ASSAY - IC50): > 10 µM
- IC90: > 10 µM

SMILES: Cc1nc(-c2cccs2)sc1NC(=O)Nc1ccc(Cl)cc1
- IC50 [1]: > 9.43 µM
- IC90: > 9.43 µM

SMILES: O=C(Nc1ncc(Cc2cccc(Cl)c2Cl)s1)c1ccncc1
- IC50 [1]: 3.27 µM
- IC90: 7.55 µM

SMILES: COc1ccc(C(CNC(=O)c2cc3c(C)nn(-c4ccc(Cl)cc4)c3s2)N(C)C)cc1 (configuration not stated)
- IC50 (PBLUC_HILL_SLOPE 12.4, PBLUC_R_SQUARED 0.574, read-out: LUCIFERASE INFECTION ASSAY - IC50): 3.47 µM
- IC90: 4.14 µM

SMILES: N#Cc1cccc(/C=C/C(=O)c2ccc(S(=O)(=O)N3CCCC3)cc2)c1
- IC50 [1]: > 10 µM
- IC90: > 10 µM

SMILES: Cc1c(C)c(C)c(CSC2=NCCCN2C2CCCCC2)c(C)c1C
- IC50 [1]: > 8.35 µM
- IC90: > 8.35 µM

SMILES: Cc1cc(NC(=O)c2cccc(S(=O)(=O)N3c4ccccc4CC3C)c2)no1 (configuration not stated)
- IC50 (PBLUC_HILL_SLOPE 18.4, PBLUC_R_SQUARED 0.605, read-out: LUCIFERASE INFECTION ASSAY - IC50): 1.1 µM
- IC90: 1.24 µM

SMILES: CC(C)C(C)NC(=O)CSc1nnc(CC2CCCC2)[nH]1 (configuration not stated)
- IC50 [1]: > 10 µM
- IC90: > 10 µM

SMILES: Cc1ccc(S(=O)(=O)c2ccc(NNS(=O)(=O)c3cccc([N+](=O)[O-])c3)cc2)cc1
- IC50 [1]: > 10 µM
- IC90: > 10 µM

SMILES: COc1cc(C(F)(F)F)nc2ccc(C#CCOC(=O)c3ccccc3Cl)cc12
- IC50 [1]: > 7.86 µM
- IC90: > 7.86 µM

SMILES: COc1cncc(-c2cnc3sc(NCC4CCOCC4)nn23)c1
- IC50 (HEPG2TOX_HILL_SLOPE 1.52, HEPG2TOX_R_SQUARED 0.935, PBLUC_HILL_SLOPE 11.6, PBLUC_R_SQUARED 0.526, read-out: LUCIFERASE INFECTION ASSAY - IC50): 1.25 µM
- IC90: 1.51 µM

SMILES: C=C1SC(Nc2cc(C)cc(C)c2)=NC1(C)C
- IC50 (PBLUC_HILL_SLOPE 0.95, PBLUC_R_SQUARED 0.559, read-out: LUCIFERASE INFECTION ASSAY - IC50): > 13.4 µM
- IC90: > 13.4 µM

SMILES: O=C1C=CC(=O)N1c1ccc(F)c(Cl)c1
- IC50 (FFLUC_HILL_SLOPE 2.09, FFLUC_R_SQUARED 0.475, HEPG2TOX_HILL_SLOPE 6.94, HEPG2TOX_R_SQUARED 0.217, PBLUC_HILL_SLOPE 8.9, PBLUC_R_SQUARED 0.496, read-out: LUCIFERASE INFECTION ASSAY - IC50): 13.6 µM
- IC90: > 14.6 µM

SMILES: OC1CCC(Nc2nn3c(-c4cccc(OC(F)(F)F)c4)cnc3s2)CC1 (configuration not stated)
- IC50 (FFLUC_HILL_SLOPE 6.8, FFLUC_R_SQUARED 0.0322, read-out: LUCIFERASE INFECTION ASSAY - IC50): > 8.28 µM
- IC90: > 8.28 µM

SMILES: Cc1ccc(-c2nc(C)sc2CC(=O)NC2CCN(C3CC3)C2)cc1 (configuration not stated)
- IC50 [1]: > 10 µM
- IC90: > 10 µM

SMILES: O=C(Nc1ccc(OC(F)(F)F)cc1)c1cc([N+](=O)[O-])c[nH]c1=O
- IC50 (PBLUC_HILL_SLOPE 2.36, PBLUC_R_SQUARED 0.402, read-out: LUCIFERASE INFECTION ASSAY - IC50): 5.59 µM
- IC90: > 10 µM

SMILES: COc1cccc(C(=O)Nc2nc3ccccc3[nH]2)c1
- IC50 [1]: > 10 µM
- IC90: > 10 µM

SMILES: COc1cc(Nc2nc3cnc(-c4cccnc4)cc3n2C)cc(OC)c1OC
- IC50 [1]: 8.65 µM
- IC90: > 10 µM

SMILES: C/C=C/c1ccc(Oc2nc(C(F)(F)F)nc3ccccc23)c(OC)c1
- IC50 (HEPG2TOX_HILL_SLOPE 2.94, HEPG2TOX_R_SQUARED 0.97, PBLUC_HILL_SLOPE 2.81, PBLUC_R_SQUARED 0.724, read-out: LUCIFERASE INFECTION ASSAY - IC50): 3.1 µM
- IC90: 6.79 µM

SMILES: CC(=O)c1cc2c(N)c(C(=O)OCc3cccc4ccccc34)sc2nc1C
- IC50 [1]: > 10 µM
- IC90: > 10 µM

SMILES: COc1ccc(C(CNC(=O)c2cc(Br)ccc2F)N(C)C)cc1 (configuration not stated)
- IC50 [1]: > 10 µM
- IC90: > 10 µM

SMILES: CCOc1ccc(C(C)=O)cc1Cn1cnc2c(cnn2-c2ccccc2)c1=O
- IC50 (FFLUC_HILL_SLOPE 11.6, FFLUC_R_SQUARED 0.166, HEPG2TOX_HILL_SLOPE 1.94, HEPG2TOX_R_SQUARED 0.895, read-out: LUCIFERASE INFECTION ASSAY - IC50): > 10 µM
- IC90: > 10 µM

SMILES: CN(Cc1ccc(-c2ccc(Cl)cc2)o1)Cc1nnc2n(C)c(=O)c3ccccc3n12
- IC50 [1]: > 10 µM
- IC90: > 10 µM

SMILES: CC(=O)Nc1sc2c(c1C(=O)OCC(=O)Nc1cc(S(=O)(=O)N3CCOCC3)ccc1Cl)CCCC2
- IC50 [1]: > 10 µM
- IC90: > 10 µM

SMILES: O=C(Nc1ccccc1)Nc1cccc(C(F)(F)F)c1
- IC50 (PBLUC_HILL_SLOPE 13.3, PBLUC_R_SQUARED 0.408, read-out: LUCIFERASE INFECTION ASSAY - IC50): 3.73 µM
- IC90: 4.4 µM

SMILES: COc1cccc(-n2c(=O)c3ccccc3n3c(SCc4cc(=O)n5ccsc5n4)nnc23)c1
- IC50 [1]: > 10 µM
- IC90: > 10 µM

SMILES: Cc1sc2ncn(/N=C/c3ccc(N(c4ccccc4)c4ccccc4)cc3)c(=O)c2c1C
- IC50 (FFLUC_HILL_SLOPE 0.996, FFLUC_R_SQUARED 0.715, HEPG2TOX_HILL_SLOPE 1.1, HEPG2TOX_R_SQUARED 0.992, PBLUC_HILL_SLOPE 2.81, PBLUC_R_SQUARED 0.433, read-out: LUCIFERASE INFECTION ASSAY - IC50): 1.84 µM
- IC90: 4.02 µM

SMILES: CC(=O)c1c(C)[nH]c(C(=O)CSc2c(C)c(C)cc(C)c2C)c1C
- IC50 (PBLUC_HILL_SLOPE 11.6, PBLUC_R_SQUARED 0.344, read-out: LUCIFERASE INFECTION ASSAY - IC50): > 10 µM
- IC90: > 10 µM

SMILES: CS(=O)(=O)Nc1cccc(-c2cn3c(-c4cccs4)cnc3cn2)c1
- IC50 (HEPG2TOX_HILL_SLOPE 4.93, HEPG2TOX_R_SQUARED 0.12, read-out: LUCIFERASE INFECTION ASSAY - IC50): > 8.91 µM
- IC90: > 8.91 µM

SMILES: O=C(CNc1cccc(S(=O)(=O)N2CCCCC2)c1)NC(=O)NC1CCCC1
- IC50 (HEPG2TOX_HILL_SLOPE 4.49, HEPG2TOX_R_SQUARED 0.873, PBLUC_HILL_SLOPE 2.27, PBLUC_R_SQUARED 0.353, read-out: LUCIFERASE INFECTION ASSAY - IC50): 7.49 µM
- IC90: > 10 µM

SMILES: CCc1cccc(CC)c1N1C(=O)C=CC1=O
- IC50 (FFLUC_HILL_SLOPE 12.6, FFLUC_R_SQUARED 0.68, HEPG2TOX_HILL_SLOPE 16.7, HEPG2TOX_R_SQUARED 0.936, PBLUC_HILL_SLOPE 11.7, PBLUC_R_SQUARED 0.538, read-out: LUCIFERASE INFECTION ASSAY - IC50): 4.85 µM
- IC90: 5.85 µM

SMILES: CCCN1C(=O)c2[nH]nc(-c3ccccc3O)c2C1c1ccc(Cl)cc1 (configuration not stated)
- IC50 (FFLUC_HILL_SLOPE 13.6, FFLUC_R_SQUARED 0.713, HEPG2TOX_HILL_SLOPE 5.14, HEPG2TOX_R_SQUARED 0.579, read-out: LUCIFERASE INFECTION ASSAY - IC50): > 8.97 µM
- IC90: > 8.97 µM

SMILES: O=[N+]([O-])c1ccc(Sc2nc(-c3ccccc3)c(-c3ccccc3)[nH]2)cc1
- IC50 (FFLUC_HILL_SLOPE 23.8, FFLUC_R_SQUARED 0.615, read-out: LUCIFERASE INFECTION ASSAY - IC50): > 8.84 µM
- IC90: > 8.84 µM

SMILES: CC(C)(C(=O)NCCc1ccccc1)n1cc(-c2ccc3c(c2)OCCO3)cn1
- IC50 [1]: > 10 µM
- IC90: > 10 µM

SMILES: CCc1nn2c(=O)c(CC)c(C)[nH]c2c1-c1ccc(Cl)cc1
- IC50 (FFLUC_HILL_SLOPE 10.5, FFLUC_R_SQUARED 0.352, PBLUC_HILL_SLOPE 13.5, PBLUC_R_SQUARED 0.435, read-out: LUCIFERASE INFECTION ASSAY - IC50): 8.92 µM
- IC90: > 10.4 µM

SMILES: NS(=O)(=O)c1ccc(CCNc2nn3c(-c4ccc(Cl)cc4)cnc3s2)cc1
- IC50 [1]: > 7.6 µM
- IC90: > 7.6 µM

SMILES: OCCCNc1nn2c(-c3cccc(F)c3)cnc2s1
- IC50 [1]: > 11.3 µM
- IC90: > 11.3 µM

SMILES: Cc1cc(Cl)c(C)c(S(=O)(=O)N(C)C(C)c2ccc(S(N)(=O)=O)cc2)c1Cl (configuration not stated)
- IC50 (HEPG2TOX_HILL_SLOPE 3.91, HEPG2TOX_R_SQUARED 0.817, PBLUC_HILL_SLOPE 1.91, PBLUC_R_SQUARED 0.506, read-out: LUCIFERASE INFECTION ASSAY - IC50): 6.84 µM
- IC90: > 10 µM

SMILES: Oc1c(Cl)cc(Cl)cc1/C=N/NC(=S)NC1CCCCC1
- IC50 (HEPG2TOX_HILL_SLOPE 8.84, HEPG2TOX_R_SQUARED 0.571, PBLUC_HILL_SLOPE 15.3, PBLUC_R_SQUARED 0.312, read-out: LUCIFERASE INFECTION ASSAY - IC50): 8.11 µM
- IC90: 9.37 µM

SMILES: CCOC(=O)C1=C(Nc2cccc(Cl)c2)S/C(=C\c2ccc(C)cc2)C1=O
- IC50 [1]: > 8.25 µM
- IC90: > 8.25 µM

SMILES: COc1ccc(C2C(C(=O)OCc3cccc4ccccc34)CCC(=O)N2c2ccc(C)cc2)cc1OC (configuration not stated)
- IC50 (HEPG2TOX_HILL_SLOPE 2.17, HEPG2TOX_R_SQUARED 0.745, PBLUC_HILL_SLOPE 19.2, PBLUC_R_SQUARED 0.577, read-out: LUCIFERASE INFECTION ASSAY - IC50): 9.58 µM
- IC90: > 10 µM

SMILES: O=c1[nH]ncc(NCCCc2ccccc2)c1Cl
- IC50 (HEPG2TOX_HILL_SLOPE 3.21, 1.90, HEPG2TOX_R_SQUARED 0.492, 0.980, PBLUC_HILL_SLOPE 2.78, PBLUC_R_SQUARED 0.0147, read-out: LUCIFERASE INFECTION ASSAY - IC50): 8.32 µM
- IC90: > 10 µM

SMILES: CCOC(=O)c1cnn(-c2ccc(C(=O)N(Cc3ccc(F)cc3)C3CC3)cc2)c1C
- IC50 [1]: > 10 µM
- IC90: > 10 µM
